Laboratory results from PubChem BioAssay AID330 (DTP/NCI, 2004).
Where “and” joins values, the source holds several entries; their conditions need not be identical. Equal entries are not always repeated. Toxic doses and inconclusive results are not listed. The calls were made as follows: active = survival T/C of 150% or more; inactive = T/C below 125% in these data.

Test system: P388 leukemia ip, CD2F1 mice, survival T/C
Experiment: NCI In Vivo Anticancer Drug Screen. Data for tumor model P388 Leukemia (intraperitoneal) in CD2F1 (CDF1) mice
Details: endpoint: median survival time, higher = longer survival
How it was run: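 Mice carrying the transplanted tumor received test compound or vehicle. Survival was recorded in each group, and the value is the treated-group measurement divided by that of the vehicle-treated control group.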

[1] = dose: 15.0 mg/kg/injection, schedule: Q01DX005 (ip), vehicle: saline with Tween-80
[2] = dose: 30.0 mg/kg/injection, schedule: Q01DX005 (ip), vehicle: saline with Tween-80
[3] = dose: 60.0 mg/kg/injection, schedule: Q01DX005 (ip), vehicle: saline with Tween-80
[4] = dose: 50.0 mg/kg/injection, schedule: Q01DX005 (ip), vehicle: saline
[5] = dose: 100.0 mg/kg/injection, schedule: Q01DX005 (ip), vehicle: saline
[6] = dose: 200.0 mg/kg/injection, schedule: Q01DX005 (ip), vehicle: saline
[7] = dose: 50.0 mg/kg/injection, schedule: Q01DX005 (ip), vehicle: saline with Tween-80
[8] = dose: 100.0 mg/kg/injection, schedule: Q01DX005 (ip), vehicle: saline with Tween-80
[9] = dose: 200.0 mg/kg/injection, schedule: Q01DX005 (ip), vehicle: saline with Tween-80
[10] = dose: 25.0 mg/kg/injection, schedule: Q01DX005 (ip), vehicle: saline with Tween-80
[11] = dose: 50.0 mg/kg/injection, schedule: Q01DX009 (ip), vehicle: Klucel (hydroxypropylcellulose) (HPC)
[12] = dose: 100.0 mg/kg/injection, schedule: Q01DX009 (ip), vehicle: Klucel (hydroxypropylcellulose) (HPC)
[13] = dose: 200.0 mg/kg/injection, schedule: Q01DX009 (ip), vehicle: Klucel (hydroxypropylcellulose) (HPC)
[14] = dose: 120.0 mg/kg/injection, schedule: Q01DX005 (ip), vehicle: saline with Tween-80
[15] = dose: 240.0 mg/kg/injection, schedule: Q01DX005 (ip), vehicle: saline with Tween-80
[16] = dose: 12.5 mg/kg/injection, schedule: Q01DX005 (ip), vehicle: saline with Tween-80

Measured: T/C

COc1ccc(C(c2c(O)c3ccccc3oc2=O)c2c(O)c3ccccc3oc2=O)cc1
inactive: [1] 98 % of control | [2] 98 % of control | [3] 100 % of control and 98 % of control

CN(CC(=O)O)c1ccc(/C=C/c2ccnc3ccccc23)cc1
inactive: dose: 50.0 mg/kg/injection, schedule: Q01DX001 (ip), vehicle: saline with Tween-80 100 % of control | dose: 100.0 mg/kg/injection, schedule: Q01DX001 (ip), vehicle: saline with Tween-80 97 % of control | dose: 200.0 mg/kg/injection, schedule: Q01DX001 (ip), vehicle: saline with Tween-80 103 % of control | dose: 400.0 mg/kg/injection, schedule: Q01DX001 (ip), vehicle: saline with Tween-80 101 % of control

CC(=O)N1CCC(/C(C)=N/O)CC1
inactive: [4] 107 % of control | [5] 101 % of control | [6] 106 % of control

CC1CC=CCC1C1OC(C)C(C)O1 (stereo unspecified)
inactive: [7] 110 % of control | [8] 106 % of control | [9] 109 % of control

Cc1cc(C)cc(C(N)=O)c1
inactive: dose: 100.0 mg/kg/injection, schedule: Q04DX003 (ip), vehicle: saline 96 % of control | dose: 200.0 mg/kg/injection, schedule: Q04DX003 (ip), vehicle: saline 99 % of control

c1ccc2c(c1)nnc1ccccc12
inactive: dose: 50.0 mg/kg/injection, schedule: Q01DX005 (ip), vehicle: Klucel + Tween-80 102 % of control | dose: 100.0 mg/kg/injection, schedule: Q01DX005 (ip), vehicle: Klucel + Tween-80 96 % of control | dose: 200.0 mg/kg/injection, schedule: Q01DX005 (ip), vehicle: Klucel + Tween-80 102 % of control

CCOP(=O)(CC(=O)NC(C(N)=O)C(C)C)OCC (stereo unspecified)
inactive: [7] 101 % of control | [8] 104 % of control | [9] 105 % of control

CC(C)Cn1c(Cl)c(C=O)c2ccccc21
inactive: dose: 100.0 mg/kg/injection, schedule: Q04DX002 (ip), vehicle: Klucel (hydroxypropylcellulose) (HPC) 101 % of control | dose: 200.0 mg/kg/injection, schedule: Q04DX002 (ip), vehicle: Klucel (hydroxypropylcellulose) (HPC) 97 % of control | dose: 400.0 mg/kg/injection, schedule: Q04DX002 (ip), vehicle: Klucel (hydroxypropylcellulose) (HPC) 90 % of control

O=NN(CC(=O)OCc1ccccc1)NC(=O)OCc1ccccc1
inactive: dose: 12.5 mg/kg/injection, schedule: Q01DX009 (ip), vehicle: other 96 % of control | dose: 25.0 mg/kg/injection, schedule: Q01DX009 (ip), vehicle: other 97 % of control | dose: 50.0 mg/kg/injection, schedule: Q01DX009 (ip), vehicle: other 94 % of control | dose: 100.0 mg/kg/injection, schedule: Q01DX009 (ip), vehicle: other 96 % of control | dose: 200.0 mg/kg/injection, schedule: Q01DX009 (ip), vehicle: other 96 % of control

Cc1cc2c(cc1C)C(=O)C(Br)=C(N)C2=O
inactive: [10] 94 % of control | [7] 100 % of control and 91 % of control | [8] 87 % of control | [9] 92 % of control

CCN(CC)Cc1cc(N=Nc2c(O)ccc3c(N=Nc4ccc(O)c(CN(CC)CC)c4)c(O)ccc23)ccc1O
inactive: dose: 50.0 mg/kg/injection, schedule: Q01DX005 (ip), vehicle: Klucel (hydroxypropylcellulose) (HPC) 108 % of control | dose: 100.0 mg/kg/injection, schedule: Q01DX005 (ip), vehicle: Klucel (hydroxypropylcellulose) (HPC) 109 % of control

Cc1ccc(I)c(C(C)(C)O)c1
inactive: [11] 100 % of control | [12] 95 % of control | [13] 97 % of control

C=CCC12CC(O)C(O)CC1(OC)OC(c1cc(OC)c(OC)c(OC)c1)C2C (stereo unspecified)
inactive: dose: 1.25 mg/kg/injection, schedule: Q01DX005 (ip), vehicle: acid diluted with saline 102 % of control | dose: 2.5 mg/kg/injection, schedule: Q01DX005 (ip), vehicle: acid diluted with saline 102 % of control | dose: 5.0 mg/kg/injection, schedule: Q01DX005 (ip), vehicle: acid diluted with saline 98 % of control | dose: 10.0 mg/kg/injection, schedule: Q01DX005 (ip), vehicle: acid diluted with saline 102 % of control

CC(NC(=O)CN(C)C(=O)OCc1ccccc1)C(=O)O (stereo unspecified)
inactive: [4] 102 % of control | [5] 96 % of control | [6] 100 % of control

Nc1ccc(S(=O)(=O)NC2C(O)OC(CO)C(O)C2O)cc1 (stereo unspecified)
inactive: [7] 98 % of control | [8] 96 % of control | [9] 97 % of control

CC1=C/N\C(C#N)=C(C#N)/N=C/C(C)=C\N\C(C#N)=C(C#N)/N=C\1
inactive: [11] 92 % of control | [12] 105 % of control | [13] 98 % of control

COC(=O)C1CCC(=O)N1Cc1csc(-c2ccccc2)n1 (stereo unspecified)
inactive: [3] 106 % of control | [14] 100 % of control | [15] 106 % of control

CCn1c2ccccc2n2c(=O)c(Cc3ccccc3)c(C)c(C#N)c12
inactive: [1] 92 % of control | [2] 91 % of control | [3] 88 % of control and 89 % of control | [15] 86 % of control

CC/C(=N\NC(N)=NC)c1ccc(Cl)cc1
inactive: dose: 25.0 mg/kg/injection, schedule: Q04DX002 (ip), vehicle: saline 101 % of control

NC(=N/C(=C/c1ccccc1)c1ccccc1)c1ccccc1
inactive: [7] 92 % of control | [8] 102 % of control

CCc1nc(N)nc(N)c1-c1ccc(Cl)c(NN=NC)c1
inactive: [16] 109 % of control | [10] 108 % of control | [7] 105 % of control and 110 % of control | [8] 112 % of control

O=C(NC(CC(NC(=O)OCc1ccccc1)NC(=O)OCc1ccccc1)NC(=O)OCc1ccccc1)OCc1ccccc1
inactive: [3] 89 % of control | [14] 91 % of control | [15] 103 % of control

Cc1ncc(CO)c(/C=N/NC(=O)c2ccncc2)c1O
inactive: dose: 60.0 mg/kg/injection, schedule: Q01DX005 (ip), vehicle: Klucel (hydroxypropylcellulose) (HPC) 102 % of control | dose: 120.0 mg/kg/injection, schedule: Q01DX005 (ip), vehicle: Klucel (hydroxypropylcellulose) (HPC) 102 % of control | dose: 240.0 mg/kg/injection, schedule: Q01DX005 (ip), vehicle: Klucel (hydroxypropylcellulose) (HPC) 101 % of control

Nc1ccc(-c2ccc(C(=O)O)cc2)cc1
inactive: [3] 104 % of control | [14] 106 % of control | [15] 109 % of control

O=C1Nc2ccccc2/C1=N/N=C/c1ccco1
inactive: [11] 96 % of control | [12] 87 % of control | [13] 88 % of control

CC1=C(C)SC(=S)NN1
inactive: dose: 3.12 mg/kg/injection, schedule: Q01DX009 (ip), vehicle: saline 96 % of control | dose: 6.25 mg/kg/injection, schedule: Q01DX009 (ip), vehicle: saline 100 % of control | dose: 12.5 mg/kg/injection, schedule: Q01DX009 (ip), vehicle: saline 100 % of control

CCN(CCNc1ccc(C)c2sc3cc(Cl)ccc3c(=O)c12)CC(C)(C)O
inactive: [16] 95 % of control | [10] 92 % of control | [7] 88 % of control and 97 % of control | [9] 95 % of control

CCCCN(CCCC)CCC(O)c1cc2c(Cl)cc(Cl)cc2c2cc(C(F)(F)F)ccc12 (stereo unspecified)
inactive: dose: 50.0 mg/kg/injection, schedule: Q01DX009 (ip), vehicle: saline with Tween-80 100 % of control | dose: 100.0 mg/kg/injection, schedule: Q01DX009 (ip), vehicle: saline with Tween-80 96 % of control

O=c1[nH]nc(-c2ccc3c(c2)OCO3)o1
inactive: dose: 32.5 mg/kg/injection, schedule: Q01DX009 (ip), vehicle: Klucel (hydroxypropylcellulose) (HPC) 105 % of control | dose: 65.0 mg/kg/injection, schedule: Q01DX009 (ip), vehicle: Klucel (hydroxypropylcellulose) (HPC) 95 % of control | dose: 130.0 mg/kg/injection, schedule: Q01DX009 (ip), vehicle: Klucel (hydroxypropylcellulose) (HPC) 95 % of control

O=Cc1ccc(S(=O)(=O)F)cc1
inactive: [11] 99 % of control | [12] 97 % of control | [13] 93 % of control

Cc1ccc(S(=O)(=O)NNC(=O)c2nc3ccccc3c(=O)[nH]2)cc1
inactive: [3] 100 % of control | [14] 92 % of control

Cc1cc(CSCCc2nc3ccccc3[nH]2)c(O)c(CSCCc2nc3ccccc3[nH]2)c1
inactive: [3] 107 % of control | [14] 93 % of control | [15] 90 % of control

CC1=CCCC(C)(O)C2CC(CCC3(C)OC3CC1)C(C)C(=O)O2 (stereo unspecified)
inactive: dose: 7.5 mg/kg/injection, schedule: Q01DX009 (ip), vehicle: Klucel (hydroxypropylcellulose) (HPC) 108 % of control | dose: 15.0 mg/kg/injection, schedule: Q01DX009 (ip), vehicle: Klucel (hydroxypropylcellulose) (HPC) 103 % of control | dose: 30.0 mg/kg/injection, schedule: Q01DX009 (ip), vehicle: Klucel (hydroxypropylcellulose) (HPC) 89 % of control | dose: 60.0 mg/kg/injection, schedule: Q01DX009 (ip), vehicle: Klucel (hydroxypropylcellulose) (HPC) 91 % of control
